In assay [1] the target is T1, full length Keap1 protein / full length NRF2 protein (Homo sapiens, UniProt Q14145).
T1 construct: full length NRF2 protein and full length Keap1 protein (Keap1 exists a dimer) are used; His
Nature of the assay: NRF2-Keap1 TR-FRET Low Protein Assay. The format is binding. An excerpt:
In the NRF2-Keap1 TR-FRET (time-resolved fluorescence resonance energy transfer) low protein assay, full length NRF2 protein and full length Keap1 protein (Keap1 exists a dimer) are used. The assay detects a compound's ability to displace the binding of Keap1 FlagHis with biotinylated Avi-NRF2 protein. Biotin-NRF2 binds to streptavidin-europium (a component of the detection mix) and Keap1 FlagHis is recognized by anti-Flag APC (allophycocyanin) antibody (also a component of the detection mix). If binding occurs between the two proteins, there will be an energy transfer from the Eu+3 (donor) at 615 nm to the APC (acceptor) at 665 nm. A potential NRF2 inhibitor will cause a reduction in the TR-FRET signal by interfering with the binding of Keap1 to NRF2.
Ten nanoliters of 100× compound dose response curves (serial 3-fold dilutions) in DMSO were stamped using an Echo liquid handling system (Labcyte) into 384-well, low volume, black assay plates (Greiner, #784076), with DMSO in columns 6 and 18. An additional 90 nl DMSO was added to each well, to bring the total volume to 100 nl per well. The top concentration of compound was located in columns 1 and 13, with the serial dilutions going across the row. All reagents were diluted in assay buffer (50 mM Tris, pH 8.0, 5 mM MgCl2, 100 mM NaCl, 0.005% BSA, 1 mM DTT, and 2 mM CHAPS. The BSA, DTT, and CHAPS were added to the assay buffer on the day of assay. Using a Multidrop Combi (Thermo Electron Corporation) equipped with a metal tip dispenser, 5 ul of 1.25 nM Keap1 FlagHis protein was added to all wells of the compound plate, with the exception of the wells in column 18. Wells in column 18 received 5 ul of assay buffer instead. Plates were centrifuged at 500 rpm for 1 minute, covered with a plate lid, and incubated at 37° C. for 2.25 hours. Plates were then removed from the incubator and allowed to cool to RT for 15 minutes. Five microliters of 2.5 nM biotin-NRF2 protein was then added to all wells of the plates and the plates were spun at 500 rpm for 1 minute, followed by incubating at 4° C. for 1.25 hours. The plates were then allowed to warm to RT for 15 minutes, followed by the addition of 10 ul of detection mix (1 nM Streptavidin Eu+W1024 and 5 ug/ml mouse anti-DYKDDDDK IgG conjugated to SureLight APC antibody; both from Columbia Biosciences) to all wells. Plates were spun at 500 rpm for 1 minute, incubated for 1 hour at RT, and read on an Envision plate reader using a 320 nm excitation filter and 615 nm and 665 nm emission filters. Compound response (% inhibition) and potency (pIC50) were calculated based on the ratio of the two emissions (665 nm/615 nm) and then the transformed data was normalized against controls in the assay (control 1=1% DMSO in the presence of NRF2 and Keap1 protein and control 2=1% DMSO in the presence of only the NRF2 protein). Data analysis was handled using the software package Abase XE (Surrey, United Kingdom). The % inhibition values were calculated from the ratio (transformed) data by the equation:
100−(100*(compound response−average control 2)/(average control 1−average control2)).
For calculation of pIC50s, Abase XE used a four parameter equation.
IC50s<10 nM (+++++), IC50s 10-100 nM (++++), IC50s 100 nM-1 uM (+++), IC50s 1-10 uM (++). and IC50s 10 uM-100 uM (+), IC50s>100 uM (−), or were not determined (ND).

In assay [2] the test system is NQO1 specific enzyme activity in BEAS-2B cells. The experiment in a line: BEAS-2B NQO1 MTT Assay. The format is cell-based. Particulars: Homo sapiens; NQO1 specific activity induction, BEAS-2B cells, 48 hours; read-out: EC50. A digest of the protocol: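 BEAS-2B cells plated overnight, treated with compound for 48 h at 37° C, then lysed; NQO1 activity measured kinetically by MTT cocktail at 570 nm over 30 min, with lysate aliquot for Cell Titer Glo. pEC50 from 3-parameter fit of ΔOD/min versus log concentration.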

Each structure is given as a SMILES string.

T1 sequence (Q14145 whole entry): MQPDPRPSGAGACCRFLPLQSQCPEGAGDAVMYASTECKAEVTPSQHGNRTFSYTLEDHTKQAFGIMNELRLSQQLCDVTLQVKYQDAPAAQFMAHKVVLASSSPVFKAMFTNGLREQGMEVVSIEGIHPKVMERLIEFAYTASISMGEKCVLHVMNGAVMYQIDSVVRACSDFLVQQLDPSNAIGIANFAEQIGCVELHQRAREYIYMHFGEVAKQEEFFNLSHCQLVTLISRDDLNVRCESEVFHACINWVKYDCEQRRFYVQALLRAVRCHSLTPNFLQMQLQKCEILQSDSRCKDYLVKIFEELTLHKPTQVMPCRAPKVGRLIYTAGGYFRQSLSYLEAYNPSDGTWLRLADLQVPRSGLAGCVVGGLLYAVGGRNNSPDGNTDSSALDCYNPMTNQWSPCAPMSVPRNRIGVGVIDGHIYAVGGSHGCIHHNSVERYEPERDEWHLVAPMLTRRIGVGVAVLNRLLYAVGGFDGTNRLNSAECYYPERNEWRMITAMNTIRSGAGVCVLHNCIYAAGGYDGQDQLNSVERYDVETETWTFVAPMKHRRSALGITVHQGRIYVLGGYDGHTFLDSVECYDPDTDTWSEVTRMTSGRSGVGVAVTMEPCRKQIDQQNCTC

Consider `Cc1cc([C@@H]2C[C@H]2c2c(C(=O)O)cnn2-c2cccc(CN3C[C@@H](C)Cc4cc(C(F)(F)F)ccc4S3(=O)=O)c2)on1` (racemic) [Example 57, 1-(3-(((S)-4-Methyl-1,1-dioxido-7-(trifluoromethyl)-4,5-dihydrobenzo[f][1,2]thiazepin-2(3H)-yl)methyl)phenyl)-5-(trans-2-(3-methylisoxazol-5-yl)cyclopropyl)-1H-pyrazole-4-carboxylic acid], for which the EC50 is 1000 to 10000 nM in assay [1] and 100 to 1000 nM in assay [2].

As for `CCCCCCN(Cc1cccc(-n2ncc(C(=O)O)c2[C@@H]2C[C@H]2c2cn(C)nn2)c1)S(=O)(=O)c1ccc(Oc2ccccc2)cc1` (relative stereo) [Example 36, 1-(3-((N-hexyl-4-phenoxyphenylsulfonamido)methyl)phenyl)-5-((trans)-2-(1-methyl-1H-1,2,3-triazol-4-yl)-cyclopropyl)-1H-pyrazole-4-carboxylic acid], the EC50 in assay [1] and in assay [2] was 100 to 1000 nM throughout.

`CN(Cc1cccc(-n2ncc(C(=O)O)c2[C@@H]2C[C@H]2c2cn(C)nn2)c1)S(=O)(=O)c1ccccc1Oc1ccccc1` (relative stereo) [Example 38, 5-((trans)-2-(1-methyl-1H-1,2,3-triazol-4-yl)cyclo-propyl)-1-(3-((N-methyl-2-phenoxyphenyl-sulfonamido)-methyl)phenyl)-1H-pyrazole-4-carboxylic acid]: the EC50 in assay [1] lay within 100 to 1000 nM; in assay [2] it was 1000 to 10000 nM.

As to `CN(Cc1cccc(-n2ncc(C(=O)O)c2[C@@H]2C[C@H]2c2cn(C)nn2)c1)S(=O)(=O)c1ccc(-c2ccccc2)cc1` (relative stereo) [Example 39, 5-((trans)-2-(1-methyl-1H-1,2,3-triazol-4-yl)cyclo-propyl)-1-(3-((N-methyl-[1,1′-biphenyl]-4-ylsulfonamido)-methyl)phenyl)-1H-pyrazole-4-carboxylic acid], the EC50 is 100 to 1000 nM in assay [1] and 1000 to 10000 nM in assay [2].

Take `CC(c1cccc(-n2ncc(C(=O)O)c2[C@@H]2C[C@H]2c2cn(C)nn2)c1)N1C[C@@H](C)Cc2ccc(C(F)(F)F)cc2S1(=O)=O` (single isomer, unassigned) [Example 6, 1-(3-((R or S)-1-((S)-4-Methyl-1,1-dioxido-8-(trifluoromethyl)-4,5-dihydrobenzo[f][1,2]thiazepin-2(3H)-yl)ethyl)phenyl)-5-((1R,2R)-2-(1-methyl-1H-1,2,3-triazol-4-yl)cyclopropyl)-1H-pyrazole-4-carboxylic acid]: the values for the EC50 in assay [1] and in assay [2] were 10 to 100 nM and 100 to 1000 nM, respectively.

`CC[C@@H]1CN(Cc2cccc(-n3ncc(C(=O)O)c3[C@@H]3C[C@H]3c3cn(C)nn3)c2)S(=O)(=O)c2ccccc2O1` [Example 3]: the EC50 in assay [1] fell in the range of 10 to 100 nM; in assay [2] it was 100 to 1000 nM.

Turning to `CC[C@H]1Cc2ccccc2S(=O)(=O)N(Cc2cccc(-n3ncc(C(=O)O)c3[C@@H]3C[C@H]3c3cn(C)nn3)c2)C1` [Example 4], the results for the EC50 in assay [1] and in assay [2] were 10 to 100 nM and 100 to 1000 nM, respectively.

With `CC[C@@H]1Cc2ccccc2CN(Cc2cccc(-n3ncc(C(=O)O)c3[C@@H]3C[C@H]3c3cn(C)nn3)c2)C1` [Example 10], the EC50 in assay [1] was 100 to 1000 nM; in assay [2], 1000 to 10000 nM.

As to `CC[C@H]1Cc2ccccc2CN(Cc2cccc(-n3ncc(C(=O)O)c3[C@@H]3C[C@H]3c3cn(C)nn3)c2)C1` [Example 11], the EC50 was in the range of 100 to 1000 nM in assay [1] and 1000 to 10000 nM in assay [2].

As to `CCC1c2ccccc2OC(C)(C)CN1Cc1cccc(-n2ncc(C(=O)O)c2[C@@H]2C[C@H]2c2cn(C)nn2)c1` (some centres unmarked) [Example 12], the EC50 in assay [1] was in the range of 10000 to 100000 nM; in assay [2], 1000 to 10000 nM.

Consider `C[C@H]1Cc2ccccc2S(=O)(=O)N(Cc2cccc(-n3ncc(C(=O)O)c3[C@@H]3C[C@H]3c3cn(C)nn3)c2)C1` [Example 15, 1-(3-(((S)-4-methyl-1,1-dioxido-4,5-dihydrobenzo[f][1,2]thiazepin-2(3H)-yl)methyl)phenyl)-5-((trans)-2-(1-methyl-1H-1,2,3-triazol-4-yl)cyclopropyl)-1H-pyrazole-4-carboxylic acid], for which the EC50 in assay [1] lay within 100 to 1000 nM; in assay [2], 1000 to 10000 nM.

Regarding `CC[C@H]1Cc2ccc(C(F)(F)F)cc2S(=O)(=O)N(Cc2cccc(-n3ncc(C(=O)O)c3[C@@H]3C[C@H]3c3cn(C)nn3)c2)C1` [Example 20, 1-(3-(((S)-4-ethyl-1,1-dioxido-8-(trifluoromethyl)-4,5-dihydrobenzo[f][1,2]thiazepin-2(3H)-yl)methyl)phenyl)-5-((1R,2R)-2-(1-methyl-1H-1,2,3-triazol-4-yl)cyclopropyl)-1H-pyrazole-4-carboxylic acid], the EC50 in assay [1] is less than 10 nM; in assay [2], 1 to 10 nM.

As for `CCCC[C@H]1Cc2ccc(C(F)(F)F)cc2S(=O)(=O)N(Cc2cccc(-n3ncc(C(=O)O)c3[C@@H]3C[C@H]3c3cn(C)nn3)c2)C1` [Example 21, 1-(3-(((S)-4-butyl-1,1-dioxido-8-(trifluoromethyl)-4,5-dihydrobenzo[f][1,2]thiazepin-2(3H)-yl)methyl)phenyl)-5-((1R,2R)-2-(1-methyl-1H-1,2,3-triazol-4-yl)cyclopropyl)-1H-pyrazole-4-carboxylic acid], the EC50 in assay [1] is less than 10 nM; in assay [2] it was less than 1 nM.

Consider `CC[C@H]1Cc2ccc(Br)cc2S(=O)(=O)N(Cc2cccc(-n3ncc(C(=O)O)c3[C@@H]3C[C@H]3c3cn(C)nn3)c2)C1` [Example 22, 1-(3-(((S)-8-bromo-4-ethyl-1,1-dioxido-4,5-dihydrobenzo[f][1,2]thiazepin-2(3H)-yl)methyl)phenyl)-5-((1R,2R)-2-(1-methyl-1H-1,2,3-triazol-4-yl)cyclopropyl)-1H-pyrazole-4-carboxylic acid], for which the EC50 in assay [1] was less than 10 nM; in assay [2], 1 to 10 nM.

In the case of `CC[C@@H]1CN(Cc2cc(-n3ncc(C(=O)O)c3C3C[C@H]3c3cn(C)nn3)ccc2C)S(=O)(=O)c2ccccc2O1` (some centres unmarked) [Example 25], the EC50 was 10 to 100 nM in assay [1] and 1000 to 10000 nM in assay [2].

As to `C[C@H]1Cc2ccc(C(F)(F)F)cc2S(=O)(=O)N([C@H]2CCc3c2cccc3-n2ncc(C(=O)O)c2[C@@H]2C[C@H]2c2cn(C)nn2)C1` [Example 26a, 1-((S)-1-((S)-4-Methyl-1,1-dioxido-8-(trifluoromethyl)-4,5-dihydrobenzo[f][1,2]thiazepin-2(3H)-yl)-2,3-dihydro-1H-inden-4-yl)-5-((1R,2R)-2-(1-methyl-1H-1,2,3-triazol-4-yl)cyclopropyl)-1H-pyrazole-4-carboxylic acid], the EC50 in assay [1] and in assay [2] was 100 to 1000 nM in each case.

For the molecule `COc1ccccc1S(=O)(=O)N(C)C1CCc2ccc(-n3ncc(C(=O)O)c3[C@@H]3C[C@H]3c3cn(C)nn3)cc21` (stereo partly drawn) [Example 27, 1-(3-(2-methoxy-N-methylphenylsulfonamido)-2,3-dihydro-1H-inden-5-yl)-5-((1R,2R)-2-(1-methyl-1H-1,2,3-triazol-4-yl)cyclopropyl)-1H-pyrazole-4-carboxylic acid], the EC50 in assay [1] was in the range of 10000 to 100000 nM; in assay [2] it was 100 to 1000 nM.

For the molecule `CC[C@@H]1CN(Cc2cc(-n3ncc(C(=O)O)c3[C@@H]3C[C@H]3c3cn(C)nn3)ccc2C)Cc2ccccc2O1` [Example 28], the EC50 in assay [1] lay within 1000 to 10000 nM; in assay [2] it was 100 to 1000 nM.

Take `CC[C@@H]1CN(Cc2cccc(-n3ncc(C(=O)O)c3[C@@H]3C[C@H]3c3cn(CC(F)(F)F)nn3)c2)S(=O)(=O)c2ccccc2O1` [Example 29]: the figures for the EC50 in assay [1] and in assay [2] were 10 to 100 nM and 100 to 1000 nM, respectively.

(Values after patent publication US20200071310A1, “N-ARYL PYRAZOLES AS NRF2 REGULATORS” (GLAXOSMITHKLINE INTELLECTUAL PROPERTY DEVELOPMENT LIMITED, priority 2016, published 2020).)
